Experiments:
Assay in all cases: relative viability (nuclei count vs DMSO), 5 days (fraction); higher = more cells survive
Neratinib = compound: CCOc1cc2ncc(C#N)c(Nc3ccc(OCc4ccccn4)c(Cl)c3)c2cc1NC(=O)/C=C/CN(C)C [Neratinib]
Method in brief: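 Viability is treated-well nuclei as a fraction of vehicle-well nuclei, reported as the median across plates. Before counting, lung cancer cell lines were kept overnight at 37 °C in 1536-well plates, pinned with five √10-spaced library-drug doses on vehicle-anchored plates, and left 5 days without medium change, then fixed, permeabilised and Hoechst-stained in one step, imaged at 4× and counted by MetaXpress. A plate passed only if control CV was below 25% and at least one doubling occurred.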

Neratinib + Trametinib = compound: CCOc1cc2ncc(C#N)c(Nc3ccc(OCc4ccccn4)c(Cl)c3)c2cc1NC(=O)/C=C/CN(C)C [Neratinib] + CC(=O)Nc1cccc(-n2c(=O)n(C3CC3)c(=O)c3c(Nc4ccc(I)cc4F)n(C)c(=O)c(C)c32)c1 [Trametinib] (partner 0.02 µM)
Method in brief: (§1)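 Values are medians from duplicate plates. Each reflects relative viability, defined as the nuclei count of treated wells over that of vehicle wells. Lung cancer cell lines in 1536-well plates were pin-tool dosed one day after seeding with one drug alone or with a fixed anchor-drug dose plus five library-drug doses (not always all listed) in √10 steps, then fixed, stained and imaged at 4× after 5 days.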

Neratinib + OSI-027 = compound: CCOc1cc2ncc(C#N)c(Nc3ccc(OCc4ccccn4)c(Cl)c3)c2cc1NC(=O)/C=C/CN(C)C [Neratinib] + COc1cccc2cc(-c3nc([C@H]4CC[C@H](C(=O)O)CC4)n4ncnc(N)c34)[nH]c12 [OSI-027] (partner 0.5 µM)
Method in brief: as §1

Neratinib + Phenformin = compound: CCOc1cc2ncc(C#N)c(Nc3ccc(OCc4ccccn4)c(Cl)c3)c2cc1NC(=O)/C=C/CN(C)C [Neratinib] + N=C(N)NC(=N)NCCc1ccccc1 [Phenformin] (partner 250 µM)
Method in brief: as §1

Cell Line | relative viability (Neratinib; 0.01 µM) | relative viability (Neratinib; 0.03162 µM) | relative viability (Neratinib; 0.1 µM) | relative viability (Neratinib; 1 µM) | relative viability (Neratinib + Trametinib; first compound 0.01 µM) | relative viability (Neratinib + Trametinib; first compound 0.03162 µM) | relative viability (Neratinib + Trametinib; first compound 0.1 µM) | relative viability (Neratinib + Trametinib; first compound 0.3162 µM) | relative viability (Neratinib + Trametinib; first compound 1 µM) | relative viability (Neratinib + OSI-027; first compound 0.01 µM) | relative viability (Neratinib + OSI-027; first compound 0.03162 µM) | relative viability (Neratinib + OSI-027; first compound 0.1 µM) | relative viability (Neratinib + OSI-027; first compound 0.3162 µM) | relative viability (Neratinib + OSI-027; first compound 1 µM) | relative viability (Neratinib + Phenformin; first compound 0.01 µM) | relative viability (Neratinib + Phenformin; first compound 0.03162 µM) | relative viability (Neratinib + Phenformin; first compound 0.1 µM) | relative viability (Neratinib + Phenformin; first compound 0.3162 µM) | relative viability (Neratinib + Phenformin; first compound 1 µM) | relative viability (Neratinib; 0.3162 µM)
NCI-H441 | 1.32 | 1.15 | 0.89 | 0.529 | 0.509 | 0.428 | 0.356 | 0.332 | 0.245 | 0.681 | 0.566 | 0.598 | 0.357 | 0.275 | 1.04 | 0.82 | 0.94 | 0.705 | 0.45 | 
NCI-H460 |  | 1.11 | 0.865 | 0.981 | 0.233 | 0.116 | 0.083 | 0.154 | 0.0847 | 0.61 | 0.891 | 0.596 | 0.419 | 0.0301 | 0.58 | 0.675 | 0.414 | 0.491 | 0.341 | 0.978
NCI-H520 | 1.11 | 1.07 | 0.937 | 0.649 | 0.642 | 0.804 |  | 0.605 | 0.421 | 0.288 | 0.253 | 0.261 | 0.234 | 0.178 | 0.599 | 0.78 | 0.53 | 0.496 | 0.287 | 0.922
NCI-H596 | 1.01 | 1.03 | 0.984 | 0.817 | 0.825 | 0.947 | 0.765 | 0.707 | 0.641 | 0.771 | 0.822 | 0.686 | 0.704 | 0.386 | 0.754 | 0.895 | 0.75 | 0.695 | 0.562 | 1.09
NCI-H647 | 1.07 | 1 | 0.931 | 0.483 | 0.439 | 0.543 | 0.366 | 0.466 | 0.229 | 0.831 | 0.738 | 0.593 | 0.483 | 0.175 | 0.574 |  | 0.398 | 0.368 | 0.113 | 
NCI-H650 | 1.02 | 1.04 | 1.12 | 0.877 | 0.968 | 1.03 | 1.16 |  | 0.937 | 0.546 | 0.544 | 0.553 | 0.46 | 0.456 | 0.509 | 0.505 | 0.493 | 0.392 | 0.423 | 0.662
NCI-H661 | 1.1 | 0.999 | 0.808 | 0.448 | 0.63 | 0.568 | 0.447 | 0.352 | 0.276 | 0.688 | 0.615 | 0.54 | 0.325 | 0.24 | 0.274 | 0.242 | 0.285 | 0.247 | 0.251 | 0.57
NCI-H727 |  | 0.878 | 0.639 | 0.624 | 0.398 | 0.427 |  | 0.355 | 0.332 | 0.58 | 0.68 | 0.466 | 0.638 | 0.406 | 0.521 | 0.597 | 0.294 | 0.4 | 0.595 | 0.884
NCI-H838 | 1 | 1.02 | 0.88 | 0.532 | 0.53 | 0.554 | 0.502 | 0.499 | 0.281 | 0.463 | 0.492 | 0.419 | 0.325 | 0.226 | 0.63 | 0.669 | 0.579 | 0.433 | 0.234 | 0.946
NCI-H1355 | 1.11 | 1.02 | 0.833 | 0.826 | 0.422 | 0.421 | 0.344 | 0.361 | 0.349 | 0.402 | 0.379 | 0.346 | 0.358 | 0.277 | 0.485 | 0.433 | 0.408 | 0.417 | 0.427 | 0.933
NCI-H1395 | 0.994 | 0.948 | 0.992 | 0.654 | 1.18 | 1.18 | 1.11 | 1.11 | 0.65 |  | 0.748 | 0.632 | 0.623 | 0.468 | 0.461 | 0.484 | 0.462 | 0.428 | 0.388 | 0.917
NCI-H1437 | 1.05 | 1.03 | 0.95 | 0.95 | 0.488 | 0.579 | 0.485 | 0.424 | 0.328 | 0.851 | 0.886 | 0.812 | 0.763 | 0.759 | 0.351 | 0.284 | 0.281 | 0.243 | 0.29 | 0.94
NCI-H1650 | 0.985 | 0.906 | 0.833 | 0.694 | 0.62 | 0.744 | 0.494 | 0.405 | 0.315 | 0.557 | 0.598 | 0.435 |  | 0.37 | 0.464 | 0.422 | 0.311 | 0.302 | 0.271 | 0.68
NCI-H1651 | 1.04 | 1.08 | 0.952 | 0.822 | 0.87 |  | 0.793 | 0.759 | 0.609 | 0.769 | 0.838 | 0.627 | 0.564 | 0.337 | 0.332 | 0.383 | 0.339 | 0.27 | 0.32 | 0.907
NCI-H1666 | 1 | 1.03 | 0.884 | 0.78 | 0.868 | 0.815 | 0.712 | 0.637 | 0.78 | 0.901 | 0.905 | 0.751 | 0.552 | 0.683 | 0.616 | 0.573 | 0.519 | 0.54 | 0.593 | 0.76
NCI-H1734 | 1.05 | 1.05 | 0.914 | 0.734 | 0.781 | 0.788 | 0.587 |  | 0.503 | 0.659 | 0.638 |  | 0.552 | 0.331 | 0.428 | 0.429 | 0.382 | 0.412 | 0.32 | 0.929
NCI-H1755 |  | 1.01 | 0.858 | 1.05 | 0.761 | 0.814 | 0.646 | 0.752 | 0.809 | 0.795 | 0.785 | 0.721 | 0.695 | 0.528 | 0.641 | 0.657 | 0.535 | 0.593 | 0.577 | 1.02
NCI-H1792 | 1.33 | 1.19 | 0.808 | 0.813 | 0.476 | 0.663 | 0.423 | 0.39 | 0.26 | 0.825 | 0.87 | 0.698 | 0.692 | 0.424 | 0.298 | 0.2 | 0.292 | 0.261 | 0.26 | 
NCI-H1793 | 1.11 | 1 | 0.682 | 0.527 | 0.454 | 0.509 | 0.407 | 0.361 | 0.253 | 0.309 | 0.26 | 0.237 | 0.167 | 0.145 | 0.392 | 0.516 | 0.281 | 0.273 | 0.255 | 0.749
NCI-H1915 | 1.07 | 1.03 | 0.972 | 1.05 | 0.32 | 0.314 | 0.294 | 0.299 | 0.23 | 0.697 | 0.67 | 0.294 | 0.595 | 0.424 | 0.383 | 0.384 | 0.228 | 0.354 | 0.39 | 0.916
NCI-H1944 | 1.18 | 0.977 | 0.865 | 0.569 | 0.434 | 0.396 | 0.364 | 0.311 | 0.286 | 0.467 | 0.419 | 0.337 | 0.286 | 0.289 | 0.237 | 0.202 | 0.192 | 0.176 | 0.174 | 0.767
NCI-H1975 | 1.07 | 1.1 | 0.905 | 0.244 | 0.388 | 0.542 | 0.373 | 0.233 | 0.165 | 0.826 | 0.921 | 0.629 | 0.25 | 0.177 | 0.434 | 0.446 | 0.403 | 0.211 | 0.161 | 0.58
NCI-H1993 | 1.03 | 0.837 | 0.719 | 0.731 | 0.445 | 0.505 | 0.512 | 0.419 | 0.54 | 0.387 | 0.576 | 0.655 | 0.643 | 0.674 | 0.365 | 0.523 | 0.533 | 0.626 | 0.567 | 0.685
NCI-H2009 | 1.01 | 1.05 | 0.989 | 0.96 | 0.301 | 0.262 | 0.307 | 0.266 | 0.179 | 0.677 | 0.762 | 0.59 | 0.467 | 0.304 | 0.482 | 0.509 | 0.484 | 0.389 | 0.303 | 0.927
NCI-H2023 | 0.997 | 0.824 |  | 0.707 | 0.594 | 0.491 | 0.371 | 0.43 | 0.399 | 0.432 | 0.493 | 0.31 | 0.331 | 0.179 | 0.434 | 0.451 | 0.362 | 0.323 | 0.298 | 0.881
NCI-H2085 | 0.977 | 1.01 | 0.871 | 0.814 | 0.605 | 0.698 | 0.545 | 0.397 | 0.315 | 0.736 | 0.882 | 0.647 | 0.398 | 0.266 | 0.795 | 0.683 | 0.708 | 0.567 | 0.437 | 0.891
NCI-H2087 | 1.15 | 0.894 | 0.829 | 0.644 | 0.19 | 0.173 | 0.15 | 0.194 | 0.16 |  | 0.634 | 0.471 | 0.335 | 0.267 | 0.493 | 0.567 | 0.391 | 0.415 | 0.234 | 0.883

Reference: the supplement of paper PMC10307832
